Assay results published in patent US11007183B2, “Cancer treatments using combinations of PI3K/Akt pathway and ERK inhibitors” (BIOMED VALLEY DISCOVERIES, INC., priority 2013, dated 2021).
pIC50: −log10 of the molar value. “Also recorded” adds a separate entry of the source.

What was measured:
[1] = Toxicity (body weight, deaths, clinical signs) in the HCT116 xenograft study; type: in vivo, mice; details: for Deaths NTR / Deaths TR: po, 45 days
Description: Animals were weighed daily on Days 1-5, then twice per week until completion of the study. The mice were observed frequently for overt signs of any adverse, TR side effects, and clinical signs were recorded when observed. Individual BW loss was monitored as per protocol, and any animal whose weight exceeded the limits for acceptable BW loss was euthanized. Group mean BW loss also was monitored as per protocol. Dosing was to be suspended in any group that exceeded the limits for acceptable mean BW loss. If mean BW recovered, then dosing was to be resumed in that group, but at a lower dosage or less frequent dosing schedule. Acceptable toxicity for the maximum tolerated dose (MTD) was defined as a group mean BW loss of less than 20% during the study and not more than 10% TR deaths. A death was classified as TR if attributable to treatment side effects as evidenced by clinical signs and/or necropsy, or may also be classified as TR if due to unknown causes during the dosing period or within 14 days of the last dose. A death was classified as NTR if there was no evidence that death was related to treatment side effects. NTR deaths may be further characterized based on cause of death. A death was classified as NTRa if it resulted from an accident or human error. […] A death was classified as NTRu if the cause of death was unknown and there was no available evidence of death related to treatment side effects, metastasis, accident or human error, although death due to treatment side effects cannot be excluded.

HCT116 Parental = assay: Single agent proliferation assay (CellTiter-Glo, 72 h); type: cell-based, human; details: Homo sapiens, HCT-116, 72 h
Description: (§1) Cells were seeded in 96-well plates at the densities and media conditions indicated in Table 11 in McCoy's 5A containing either 10% FBS or 1% charcoal-stripped FBS (CS-FBS), and allowed to adhere overnight prior to addition of compound or vehicle control. Compounds were prepared from DMSO stocks to give the desired final concentrations. The final DMSO concentration was constant at 0.1%. Test compounds were incubated with the cells for 72 h at 37° C., 5% CO2 in a humidified atmosphere. CellTiter-Glo® reagent (Promega, Madison, Wis.) was added according to manufacturer's instructions and luminescence detected using the BMG FLUOstar plate reader (BMG Labtech, Ortenberg, Germany). The average media only background value was deducted and the data analysed using a 4-parameter logistic equation in GraphPad Prism (GraphPad Software, La Jolla, Calif.).

HCT116 PIK3CA (+/−) = assay: as above; type: cell-based, human; details: Homo sapiens, HCT-116, 72 h
Description: as §1, with “Compounds were prepared from DMSO stocks to give the desired final concentrations.” left out

[2] = test system: HCT116 PIK3CA (+/−) cells; assay: Combination proliferation assay (Loewe/Bliss); type: cell-based, human; details: 2.5% serum
Description: Test compounds were incubated with the cells for 72 h at 37° C., 5% CO2 in a humidified atmosphere. CellTiter-Glo® reagent (Promega, Madison, Wis.) was added according to manufacturer's instructions and luminescence detected using the BMG FLUOstar plate reader (BMG Labtech, Ortenberg, Germany). The average media only background value was deducted and the data analysed. For the 10×8 combination assays the combination interactions across the dose matrix were determined by the Loewe Additivity and Bliss independence models using ChaliceTM Combination Analysis Software (Horizon Discovery Group, Cambridge, Mass.) as outlined in the user manual (available at chalice.horizondiscovery.com/chalice-portal/documentation/analyzer/home.jsp). Synergy is determined by comparing the experimentally observed level of inhibition at each combination point with the value expected for additivity, which is derived from the single-agent responses along the edges of the matrix. Potential synergistic interactions were identified by displaying the calculated excess inhibition over that predicted as being additive across the dose matrix as a heat map, and by reporting a quantitative 'Synergy Score' based on the Loewe model. The single agent data derived from the combination assay plates were presented as dose-response curves generated in GraphPad Prism (GraphPad Software, La Jolla, Calif.) (plotted using percentage viability relative to DMSO only treated controls). […] (Cbliss is the fractional inhibition that would be expected if the combination of the two drugs were exactly additive). Cbliss values were then subtracted from the experimentally observed fractional inhibition values to give an 'excess over Bliss' value which were plotted as heat maps±SD.

[3] = test system: MAPK signaling in A375 cells; assay: Western blot of MAPK signaling, cell cycle and apoptosis markers; type: cell-based, human
Description: (§2) For Western blot studies, HCT116 cells (5×10^6) were seeded into 10 cm dishes in McCoy's 5A plus 10% FBS. A375 cells (2.5×10^6) were seeded into 10 cm dishes in DMEM plus 10% FBS. Cells were allowed to adhere overnight prior to addition of the indicated amount of test compound (BVD-523) or vehicle control. Cells were treated for either 4 or 24 hours before isolation of whole-cell protein lysates, as specified below. Cells were harvested by trypsinisation, pelleted and snap frozen. Lysates were prepared with RIPA (Radio-Immunoprecipitation Assay) buffer, clarified by centrifugation and quantitated by bicinchoninic acid assay (BCA) assay. 20-50 μg of protein was resolved by SDS-PAGE electrophoresis, blotted onto PVDF membrane and probed using the antibodies detailed in Table 9 (for the 4-hour treatment) and Table 10 (for the 24-hour treatment) below.

[4] = test system: MAPK signaling in HCT-116 cells; assay: Western blot of MAPK signaling markers; type: cell-based, human; details: HCT116 KRAS mutant cell line, 4 hours, micromolar concentrations
Description: as §2

[5] = A375, prolonged (24 hours) treatment

## CC(C)Nc1cc(-c2c[nH]c(C(=O)N[C@H](CO)c3cccc(Cl)c3)c2)c(Cl)cn1 [BVD-523]
[1]; Group 5: BVD-523 100 mg/kg p.o. bid to end, 100 mg/kg
  Tolerability relative to the MTD: above the MTD; also recorded: above the maximum tolerated dose
[1]; mouse, in vivo, 50 mg/kg
  Adverse clinical signs: no noteworthy adverse clinical signs
  Deaths NTR: 0
  Deaths TR: 0
[1]; mouse, in vivo, 100 mg/kg
  Deaths NTR: 0
  Deaths TR: 4
HCT116 Parental; 1% CS-FBS
  pIC50: 7.70
HCT116 Parental; 10% FBS
  pIC50: 6.77
HCT116 PIK3CA (+/−); 1% CS-FBS
  pIC50: 8.00
HCT116 PIK3CA (+/−); 10% FBS
  pIC50: 6.92
[2]; HCT116 line lacking the PIK3CA mutation vs parental
  Single agent sensitivity relative to the parental line: more sensitive
[2]; Homo sapiens, HCT-116, HCT116 PIK3CA (+/−), mean of n=4 separate combinations, read-out: IC50 (single agent, derived from combination assay plates)
  pIC50: 7.40
[3]; 24 hours (prolonged) treatment
  cyclin-D1 protein level: greatly reduced
[3]; 24 hours (prolonged) treatment, BRAF mutant cells
  MAPK feedback phosphatase DUSP6 protein level: greatly reduced
[3]; [5]
  Apoptosis / PARP cleavage: PARP protein cleavage and increased apoptosis were not noted; also recorded: increased apoptosis was not observed
  Bim-EL level: increased
[3]; A375 BRAF mutant cell line, 4 hours, micromolar concentrations
  Phosphorylation of ERK-dependent residues (T359/S363) in RSK 1 and 2: reduced
[3]; RAF and RAS mutant cancer cells in-vitro, acute and prolonged treatment
  Concentrations required to induce changes in substrate phosphorylation and effector targets of ERK kinases: low micromolar range
[3]; acute or prolonged treatment
  Cellular ERK enzyme activity: fully inhibited
[4]
  Phosphorylation of ERK-dependent residues (T359/S363) in RSK 1 and 2: reduced
